Where two headings read alike, the source gives them in different places.
Tests used:
[1] = system: CD19 CAR T cells; test: CAR T cell cytokine production (Luminex) under CD19 K562, KIP-1 or CD2/3/28 stimulation; conditions: 72 h
Procedure: Cryopreserved healthy donor CLP CD19 CAR T cells were thawed and rested overnight in 100 U/ml of IL-2 at 1×10^6/ml. 2.5×10^5 CD19 CART cells were plated in 96-well RB plate wells in a total volume of 200 μl of R10 culture media. […] CD19 CART cell cytokine production was allowed to proceed through 72 hours in the presence of stimulator and JAKi or steroid. Following 72 h of culture, 100 μl of the cell supernatant of each well were harvested and stored at −80° C. for later Luminex/Bioplex-200 cytokine analysis. Briefly, stored supernatants were thawed and 50 μl of the sample was assayed for cytokines using a ThermoFisher Procarta Plex 19-plex human cytokine assay kit (ThermoFisher, Carlsbad, CA) according to kit manufacturer's instructions and detected using a BioRad Bioplex-200 instrument. The data points generated from the luminex cytokine assay were transferred to a GraphPad PRISM IC50 dose-response curve analysis to generate IC50 or potency values for the JAKi's and steroids tested.

[2] = plasma protein binding, reported; cited from earlier work
[3] = system: CAR-T cells; test: CAR-T cell expansion assay (KIP-1 or CD3/CD28 stimulation); conditions: CD3/CD28
[4] = in vitro; conditions: human, CAR-T cells
[5] = system: NALM6.GFP.LUC.CD19 target cells
[6] = system: phospho-STAT panel (pSTAT3/4/5), CD3+ T cells; test: phospho-STAT induction by IL-6, MesoScale Discovery phospho-STAT panel; format: cell-based, human; conditions: CD3+ T cells; for pSTAT3: MSD signal (No stim. 689, IL-6 alone 33641); for pSTAT4: MSD signal (No stim. 1964, IL-6 alone 15405); for pSTAT5: MSD signal (No stim. 9210, IL-6 alone 17743)
Procedure: CD19 CAR-T, PBMC or CD3+ T cells (AllCells) were thawed and rested 0/N at 37° C. in R10 media. Cells were seeded at 700,000 cells/well and were either untreated or treated with 100 ng/ml IL6+drug at indicated concentrations for 20 minutes at 37° C. The cells were then washed with cold PBS and followed by 60 μl of Tris lysis buffer (provided by MSD) for 30 minutes on ice. Lysates were collected by spin down for 10 minutes at >10,000 rpm. 25 μl/well per condition was used for MesoScale Discovery (MSD) assay using the phospho-STAT panel (pSTAT3/4/5) from MesoScale Discovery following the manufacturer's protocol. pSTAT panel plates were blocked with 150 μl of blocker A solution for 1 hr at RT with shaking. Plates were washed three times with 1× Tris wash buffer. 25 μl of lysate samples were added per well, incubated 2 hr at room temperature or at 4° C. overnight. Plates were washed 3 times with 1× tris wash buffer and then 25 μl of detection antibody solution were added to each well and incubated for 1 hr at room temperature with shaking. Plates were washed and 1× read buffer added to each well and plates were read on the MSD instrument.

[7] = Clinical pharmacokinetic data converted to in vitro concentrations; conditions: human, in vivo
Source text: Given the different potencies of the JAK inhibitors and different pharmacokinetic properties for each drug, it was sought to test each drug at a relevant range of physiological concentrations based on clinical dosing and reported pharmacokinetic data from repeat dose studies. Reported Cmax values in patient sera were converted to in vitro concentrations and adjusted for reported plasma protein binding.

[8] = 100 ng/ml IL-6 + drug 10 uM, 20 min

Question: Which results are given for C[C@H]1C[C@@H]2[C@H]([C@@H](O)C[C@@]3(C)[C@H]2CC[C@]3(O)C(=O)CO)[C@@]2(C)C=CC(=O)C=C12 [Methlyprednisolone]?
Answer: Suppression of cytokine production, IL-6 (IC50) ([1]; CD3/CD28 stimulation): Suppress; Suppression of cytokine production, MCP-1, % inh. ([1]; CD3/CD28 stimulation): >80% inh.; Suppression of cytokine production, TNFa, % inh. ([1]; CD3/CD28 stimulation): >50% inh.; Suppression of cytokine production, IL-6 (IC50) ([1]; K562-CD19 stimulation): Suppress; Suppression of cytokine production, MCP-1 (IC50) ([1]; K562-CD19 stimulation): Suppress; Suppression of cytokine production, MIG (IC50) ([1]; K562-CD19 stimulation): Suppress; Suppression of cytokine production, TNFa (IC50) ([1]; K562-CD19 stimulation): Suppress; Suppression of cytokine production, IL-6, % inh. ([1]; KIP-1 stimulation): 66% inh.; Suppression of cytokine production, IL-10, % inh. ([1]; KIP-1 stimulation): 50% inh.; Suppression of cytokine production, MCP-1, % inh. ([1]; KIP-1 stimulation): 66% inh.; Suppression of cytokine production, MIG, % inh. ([1]; KIP-1 stimulation): 50% inh.; Suppression of cytokine production, TNFa, % inh. ([1]; KIP-1 stimulation): 75% inh.; IC50 ([1]; read-out: Suppression of cytokine production, GMCSF (IC50), CD3/CD28 stimulation): > 10 µM; IC50 ([1]; read-out: Suppression of cytokine production, GMCSF (IC50), KIP-1 stimulation): > 10 µM; IC50 ([1]; read-out: Suppression of cytokine production, GzB (IC50), CD3/CD28 stimulation): > 10 µM; IC50 ([1]; read-out: Suppression of cytokine production, GzB (IC50), KIP-1 stimulation): > 10 µM; IC50 ([1]; read-out: Suppression of cytokine production, IFNg (IC50), CD3/CD28 stimulation): > 10 µM; IC50 ([1]; read-out: Suppression of cytokine production, IFNg (IC50), KIP-1 stimulation): > 10 µM; IC50 ([1]; read-out: Suppression of cytokine production, IL-2Ra (IC50), CD3/CD28 stimulation): > 10 µM; IC50 ([1]; read-out: Suppression of cytokine production, IL-2Ra (IC50), K562-CD19 stimulation): > 10 µM; IC50 ([1]; read-out: Suppression of cytokine production, IL-2Ra (IC50), KIP-1 stimulation): > 10 µM; IC50 ([1]; read-out: Suppression of cytokine production, IL-8 (IC50), CD3/CD28 stimulation): > 10 µM; IC50 ([1]; read-out: Suppression of cytokine production, IL-8 (IC50), K562-CD19 stimulation): > 10 µM; IC50 ([1]; read-out: Suppression of cytokine production, IL-8 (IC50), KIP-1 stimulation): > 10 µM; IC50 ([1]; read-out: Suppression of cytokine production, IL-10 (IC50), CD3/CD28 stimulation): > 10 µM; IC50 ([1]; read-out: Suppression of cytokine production, MIG (IC50), CD3/CD28 stimulation): > 10 µM; IC50 ([1]; read-out: Suppression of cytokine production, MIP-1a (IC50), CD3/CD28 stimulation): > 10 µM; IC50 ([1]; read-out: Suppression of cytokine production, MIP-1a (IC50), KIP-1 stimulation): > 10 µM; IC50 ([1]; read-out: Suppression of cytokine production, MIP-1b (IC50), CD3/CD28 stimulation): > 10 µM; IC50 ([1]; read-out: Suppression of cytokine production, MIP-1b (IC50), KIP-1 stimulation): > 10 µM; IC50 ([1]; read-out: Suppression of cytokine production, Perforin (IC50), CD3/CD28 stimulation): > 10 µM; IC50 ([1]; read-out: Suppression of cytokine production, Perforin (IC50), KIP-1 stimulation): > 10 µM

Question: Which Protein binding [2] does the source give for C[C@H]1C[C@@H]2[C@H]([C@@H](O)C[C@@]3(C)[C@H]2CC[C@]3(O)C(=O)CO)[C@@]2(C)C=CC(=O)C=C12 [methylprednisolone] here?
Answer: Its Protein binding is 78%.

Question: And the “% viability” value ([3]; dose 1000 nM, day 4)?
Answer: The value was 44.3%.

Question: And the “% viability” value ([3]; dose 1000 nM, day 12)?
Answer: Its value is 62.6%.

Question: What about the “% viability” value ([3]; dose 5000 nM, day 4) of the same compound?
Answer: The value was 46.6%.

Question: And the “% viability” value ([3]; dose 5000 nM, day 8)?
Answer: Its value is 59.1%.

Question: What about the “% viability” value ([3]; dose 5000 nM, day 12) of the same compound?
Answer: Its value is 58.9%.

Question: What about the viability at 0 day, 1000 nM [4] of the same compound?
Answer: Its viability at 0 day, 1000 nM is 75%.

Question: And the viability at 0 day, 5000 nM [4]?
Answer: The viability at 0 day, 5000 nM was 75%.

Question: What about the viability at 4 day, 1000 nM [4] of the same compound?
Answer: Its viability at 4 day, 1000 nM is 58.1%.

Question: And the viability at 4 day, 5000 nM [4]?
Answer: The viability at 4 day, 5000 nM was 49.4%.

Question: And the viability at 8 day, 1000 nM [4]?
Answer: The viability at 8 day, 1000 nM was 69.1%.

Question: What about the viability at 8 day, 5000 nM [4] of the same compound?
Answer: The viability at 8 day, 5000 nM was 66%.

Question: What about the viability at 12 day, 1000 nM [4] of the same compound?
Answer: The viability at 12 day, 1000 nM was 76.3%.

Question: What about the viability at 12 day, 5000 nM [4] of the same compound?
Answer: Its viability at 12 day, 5000 nM is 71.9%.

Question: And the “impact on CAR-T serial killing (percent cytotoxicity)” value [5]?
Answer: Its value is “differential impacts”.

Question: What about the pSTAT3 [6, 8] of the same compound?
Answer: The pSTAT3 was 25867.

Question: What about the pSTAT4 [6, 8] of the same compound?
Answer: The pSTAT4 was 11225.

Question: What about the pSTAT5 [6, 8] of the same compound?
Answer: Its pSTAT5 is 14781.

Question: And the pSTAT3 ([6]; IL-6 + drug 0.125 uM)?
Answer: Its pSTAT3 is 30520.

Question: And the pSTAT4 ([6]; IL-6 + drug 0.125 uM)?
Answer: Its pSTAT4 is 14740.

Question: What about the pSTAT5 ([6]; IL-6 + drug 0.125 uM) of the same compound?
Answer: Its pSTAT5 is 18739.

Question: And the pSTAT3 ([6]; IL-6 + drug 0.5 uM)?
Answer: Its pSTAT3 is 30901.

Question: And the pSTAT4 ([6]; IL-6 + drug 0.5 uM)?
Answer: Its pSTAT4 is 14903.

Question: And the pSTAT5 ([6]; IL-6 + drug 0.5 uM)?
Answer: Its pSTAT5 is 20208.

Question: And the pSTAT3 ([6]; IL-6 + drug 1 uM)?
Answer: Its pSTAT3 is 28287.

Question: What about the pSTAT4 ([6]; IL-6 + drug 1 uM) of the same compound?
Answer: Its pSTAT4 is 14989.

Question: What about the pSTAT5 ([6]; IL-6 + drug 1 uM) of the same compound?
Answer: Its pSTAT5 is 18668.

Question: What about the pSTAT3 ([6]; IL-6 + drug 5 uM) of the same compound?
Answer: Its pSTAT3 is 25433.

Question: What about the pSTAT4 ([6]; IL-6 + drug 5 uM) of the same compound?
Answer: The pSTAT4 was 11282.

Question: And the pSTAT5 ([6]; IL-6 + drug 5 uM)?
Answer: The pSTAT5 was 15142.

Question: What about the “PPB adj. in Vitro concentration (free)” value [7] of the same compound?
Answer: The value was 670 nM.

Question: And the “PPB adj. in Vitro concentration (total)” value [7]?
Answer: Its value is 2.56 µM.

Question: And the “clinically relevant dose level (in vitro concentration)” value [7]?
Answer: The value was roughly 2.5 µM.

Question: And the Cmax ([7]; 100 mg)?
Answer: The Cmax was 960 ng/mL.

Question: And the “Cmax (ng/ml) (free)” value ([7]; 100 mg)?
Answer: Its value is 251 ng/mL.
